This is an account of results in patent US20100303790A1, “USE OF BILIVERDIN REDUCTASE (BVR) AND BVR PEPTIDE FRAGMENTS TO TREAT CORONARY DISORDERS” (UNIVERSITY OF ROCHESTER, priority 2009, published 2010).

Assay [1] concerns rat neonatal cardiomyocytes. The conditions noted are these: literature (Hu et al. 2006); cited from earlier work.
The test system of assay [2] is rat neonatal cardiomyocytes. Kind of assay: BVR, HO-2 and HO-1 protein levels in rat neonatal cardiomyocytes (western blot). It counts as cell-based. The method, then: Neonatal Rat Cardiomyocytes: Primary cultures of neonatal rat cardiomyocytes were prepared as described previously (Ding et al., “Functional Role of Phosphodiesterase 3 in Cardiomyocyte Apoptosis: Implication in Heart Failure,” Circulation 111:2469-2476 (2005) which is hereby incorporated by reference in its entirety). Briefly, fragmented ventricular tissue from 1-2 day old Sprague-Dawley rats was subjected to multiple rounds of enzymatic digestion with collagenase II (Worthington, Lakewood, N.J.). The cells were then collected by low speed centrifugation at 4° C. Non-myocytes were removed by two rounds of pre-plating the cells on culture dishes. The enriched cardiomyocytes were cultured in DMEM with 10% FBS and 10% horse serum. The day after cell adhesion, 10 μM cytosine 1-β-D-arabinofuranoside (Sigma, St. Louis, Mo.) was added to inhibit the growth of contaminating non-myocytes.
Plasmids and Constructs: Adenovirus for expression of an endogenous PKA inhibitor (PKA251 bp) was prepared as described previously (Ding et al., “Functional Role of Phosphodiesterase 3 in Cardiomyocyte Apoptosis: Implication in Heart Failure,” Circulation 111:2469-2476 (2005), which is hereby incorporated by reference in its entirety). Rat BVR and HO-2 siRNA were designed based on the human sequences (Miralem et al., “Small Interference RNA-Mediated Gene Silencing of Human Biliverdin Reductase, but not that of Heme Oxygenase-1, Attenuates Arsenite-Mediated Induction of the Oxygenase and Increases Apoptosis in 293A Kidney Cells,” J Biol Chem 280:17084-17092 (2005), which is hereby incorporated by reference in its entirety). The BVR targeting site is at nucleotides 94-114, and the HO-2 targeting site is at nucleotides 73-93, downstream of the start codon in each case. Oligonucleotides containing the sequence of a 21 nucleotide small interference RNA were synthesized as follows: BVR siRNA, 5′-GATCCCC ([…]) TTCAAGAG ([…]) TTTTTGGAAA (SEQ ID NO:61) and 5′-AGCTTTTCCAAAAA ([…]) TCTCTTGAA ([…]) GGG (SEQ ID NO:62; HO-2 siRNA, 5′-GATCCCC ([…]) TTCAAGAGA ([…]) TTTTTGGAAA (SEQ ID NO:63) and 3′-AGCTTTTCCAAAAA ([…]) TCTCTTGAA ([…]) GGG (SEQ ID NO:64). Complementary oligonucleotides were annealed, then ligated into pSuper-Retro vector (OligoEngine Co. Seattle, Wash.). E. coli clones containing the desired constructs were identified by restriction analysis and verified by DNA sequencing. The retroviral DNA vectors for generating BVR si-rRNA and […] were transfected into the HEK293A packaging cell line, and the supernatant containing the expressed si-rBVR or si-rHO-2 retrovirus was then titrated in NIH3T3 cells. Retrovirus expressing siRNA was used to infect cells at a multiplicity of infection of 4 plaque-forming units/cell. The plasmid pcDNA-hBVR has previously been described (Lerner-Marmarosh et al., “Human Biliverdin Reductase: A Member of the Insulin Receptor Substrate Family with Serine/Threonine/Tyrosine Kinase Activity,” Proc Natl Acad Sci US A 102:7109-7114 (2005), which is hereby incorporated by reference in its entirety); pcDNA-hHO2 was constructed by cloning the HO-2 open reading frame into pcDNA3. […]

Another assay deals with rat heart. In words: BVR and HO-2 expression in rat heart after continuous isoproterenol infusion. It counts as in vivo. The note with it: 400 μg isoproterenol/kg/h, four days. The method, then:
Western Blot Analysis: Cell lysates were prepared by homogenization in RIPA buffer (40 mM Tris-HCl, pH 7.5, 1 mM EDTA, 1 mM DTT, 0.1 mM Na3VO4, 10 μg/ml aprotinin, 5 μg/ml pepstatin, 20 μg/ml leupeptin, 1 mM bezamidine followed by centrifugation at 800×g for 10 minutes at 4° C. (Ding et al., “Functional Role of Phosphodiesterase 3 in Cardiomyocyte Apoptosis: Implication in Heart Failure,” Circulation 111:2469-2476 (2005), which is hereby incorporated by reference in its entirety). Supernatant proteins were resolved by SDS-PAGE and transferred to nitrocellulose. Western blots were examined using antibodies against β-actin (Cell Signaling), BVR (Huang et al., “Detection of 10 Variants of Biliverdin Reductase in Rat Liver by Two-Dimensional Gel Electrophoresis,” J Biol Chem 264:7844-7849 (1989), which is hereby incorporated by reference in its entirety), HO-1, HO-2 (Panahian et al., “Site of Injury-Directed Induction of Heme Oxygenase-1 and -2 in Experimental Spinal Cord Injury Differential Functions in Neuronal Defense Mechanisms?” J Neurochem 76:539-554 (2001), which is hereby incorporated by reference in its entirety), and cleaved caspase-3 (Cell Signaling, Beverly Mass.). The secondary antibody was horseradish peroxidase-conjugated goat anti-rabbit IgG (1:2,000, Bio-Rad).
Quantitative RT-PCR: Total RNA was isolated using Trizol reagent (Invitrogen). The first-strand cDNA synthesis and quantitative polymerase chain reaction (RT-PCR) were performed as previously described (Tudor et al., “Biliverdin Reductase is a Transporter of Haem into the Nucleus and is Essential for Regulation of HO-1 Gene Expression by Haematin,” Biochem J 413:405-416 (2008), which is hereby incorporated by reference in its entirety). The following primers were used for PCR analysis: […]
Implanting ISO Miniosmotic Pump: Miniosmotic pumps (Alzet model 2001, Durect Co., Cupertino, Calif.) were filled under sterile conditions with ISO dissolved in 0.001 N HCl, primed in sterile saline at 37° C. overnight, and aseptically implanted subcutaneously under halothane anesthesia. The ISO concentration was calculated to allow the pumps to deliver the drug at an infusion rate of 400 μg ISO base/kg/h, essentially as described by (Hayes et al., “Effects of Prolonged Isoproterenol Infusion on Cardiac and Vascular Responses to Adrenoceptor Agonists,”J Pharmacol Exp Ther 237:757-763 (1986), which is hereby incorporated by reference in its entirety).
It might be argued that the above data arose as an artifact of cell culture. To test whether those findings also apply in vivo, four rats were continuously infused with isoproterenol for four days, after which cardiac tissue was harvested for examination of BVR and HO-2 expression. […] Also, as expected from in vitro observations, there was no change in the level of HO-2 mRNA during infusion with isoproterenol (FIG. 3B), whereas the BVR mRNA was increased.

The mark [3] stands for this setting: 10 μM isoproterenol, western blot.

On to `CC(C)NCC(O)c1ccc(O)c(O)c1` (centres unmarked) [isoproterenol], for which the cardiomyocyte apoptosis entry in assay [1] was “increases cardiomyocyte apoptosis”. In addition, the “time for which increased levels of both proteins (BVR, HO-2) remained stable” value in assay [2] (10 μM isoproterenol) is “up to 96 hours”. For the same compound, in assay [2] (setting [3]), the “time by which BVR protein expression was elevated” value is ≤ 8 h, the “time by which HO-2 protein level began to increase” value is ≤ 12 h and the “time by which HO-2 protein level reached a plateau” value is ≤ 24 h. For the same compound, the HO-1 protein expression result in assay [2] (isoproterenol treatment up to 96 hours) is on record as “not detected”. For the same compound, in the assay with rat heart, the “BVR mRNA in heart” value is “increased”, the “level of HO-1 mRNA in the tissue” value is “no apparent change” and the “level of HO-2 mRNA in heart” value was “no change”. In the assay on rat heart (vs sham), the “BVR protein expression in heart” value is recorded as “up-regulated” and the “HO-2 protein expression in heart” value is listed as “up-regulated”.
